Molecular target: T1, hyaluronidase
T1 construct: gene SPAM1
Assay: turbidimetric assay, CTAB precipitation of undigested hyaluronic acid, absorbance […] nm
Assay type: biochemical
Conditions: hyaluronic acid 0.3 mg/mL, acetate buffer pH 4.5, bovine albumin and NaCl present, 37 °C, 10 min preincubation, 45 min reaction

SMILES: O=C(O)[C@H]1O[C@@H](Oc2cc3oc(-c4ccccc4)cc(=O)c3c(O)c2O)[C@H](O)[C@@H](O)[C@@H]1O [Baicalin]
- Ability to Inhibit the Enzyme Hyaluronidase IC50: 1210 ± 60 µg/mL

Reference: article PMC9611887, “Chitosan as a Functional Carrier for the Local Delivery Anti-Inflammatory Systems Containing Scutellariae baicalensis radix Extract” (Pharmaceutics, 2022)
